Reference: ChEMBL document CHEMBL1201862, “PubChem BioAssay data set” (2004)
The source made the active and inactive calls.

Assays:
[1] = target: Paired box protein Pax-8 (Homo sapiens, UniProt Q06710); experiment: inhibitors of PAX8-driven TPO luciferase reporter, dose response, RMG-I cells, cherry-pick (AID 687027); type: functional, cell-based;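 also: luciferase reporter driven by Pax8 target thyroperoxidase promoter measured by SteadyGlo luminescence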
[2] = PAX2 cell-based inhibition, dose response, selectivity assay for PAX8 inhibitor project, plate reader, dry powder samples (AID 743048); type: functional;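 also: HEK293 cells carrying a WT1 promoter luciferase reporter driven by expressed Pax2; potency is for inhibition of Pax2 driven reporter signal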
[3] = PAX5 activity inhibitors, dose response, selectivity assay for PAX8 inhibitor project, cell-based, plate reader, dry powder samples (AID 743047); type: functional;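 also: HEK293 cells carrying a Pax5 driven CD19 promoter luciferase reporter; potency of inhibitors that lower reporter luminescence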
[4] = cytotoxicity in COV434 cells, dose response, cytotoxicity control for PAX8 inhibitor project, cell-based, plate reader, dry powder, SA7 (AID 743145); type: functional
[5] = cytotoxicity in OVCAR8 ovarian cancer cells, dose response, PAX8 project, cell-based, plate reader, dry powder samples (AID 743197); type: functional; conditions: OVCAR-8
[6] = cytotoxicity dependent on PAX8, dose response, cell-based, plate reader, dry powder (AID 743049); type: functional
[7] = Late stage assay provider results from the probe development effort to identify selective inhibitors of heat shock protein 90 (HSP90): Absorbance-based cell proliferation assay in SKBR3 cells.; type: functional; conditions: SK-BR-3
[8] = Late stage assay provider results from the probe development effort to identify selective inhibitors of heat shock protein 90 (HSP90): Absorbance-based cell proliferation assay in MCF7 cells.; type: functional
[9] = A375 melanoma cell cytotoxicity, dose response, counter-screen for MITF inhibitor project, CellTiter-Glo luminescence, dry powder, set 7 (AID 624490); type: functional, cell-based; conditions: A-375
[10] = SK-MEL-5 parental line viability, dose response, MITF inhibitor project, cell-based, CellTiter-Glo, dry powder, set 6 (AID 624429); type: functional
[11] = MITF Orthogonal Assay: SK-MEL-5 CTG Assay Measured in Cell-Based System Using Plate Reader - 2084-02_Inhibitor_Dose_DryPowder_Activity_Set5.; type: functional
[12] = MITF Measured in Cell-Based System Using Plate Reader - 2084-01_Inhibitor_Dose_DryPowder_Activity_Set6.; type: functional
[13] = MITF Measured in Cell-Based System Using Plate Reader - 2084-01_Inhibitor_Dose_DryPowder_Activity_Set7.; type: functional
[14] = P. falciparum 3D7-ScDHODH growth inhibitors, dose response, SYBR Green, dry powder samples (AID 1159570); type: functional, cell-based;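 also: parasite growth measured after 72 hours of compound exposure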
[15] = HepG2 cell cytotoxicity, dose response, cytotoxicity control, plate reader, dry powder samples (AID 1159569); type: functional, cell-based;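 also: inhibitor potency with signal falling toward the positive control level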
[16] = P. falciparum Dd2 growth inhibitors, dose response, SYBR Green, cherry-picked samples (AID 1159567); type: functional, cell-based
[17] = P. falciparum Dd2 growth inhibitors, dose response, SYBR Green, dry powder samples (AID 1159566); type: functional, cell-based;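 also: potency for growth inhibition with lower SYBR green DNA signal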
[18] = Plasmodium falciparum Dd2 Sybr green parasite growth Measured in Cell-Based and Microorganism Combination System Using Plate Reader - 2153-01_Inhibitor_Dose_DryPowder_Activity_Set3.; type: functional
[19] = P. falciparum ATP4 D1247Y mutant growth inhibitors, dose response, NITD609-resistant line, SYBR Green, dry powder (AID 1159571); type: functional, cell-based;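 also: parasites synchronized at ring stage by sorbitol before testing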
[20] = Dose-response inhibition of insulin secretion in a rat insulinoma line at 5 mM glucose (AID 1117331); type: functional, cell-based; conditions: INS-1E
[21] = system: HeLa; experiment: HeLa cell cytotoxicity, dose response, cytotoxicity control, ATP luminescence, cherry-pick samples (AID 687004); type: functional, cell-based; conditions: Homo sapiens
[22] = system: HEK293; experiment: HEK293T cell cytotoxicity, dose response, cytotoxicity control, ATP luminescence, cherry-pick samples (AID 687005); type: functional, cell-based; conditions: Homo sapiens;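 also: cells exposed to compound for 48 hours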
[23] = HEK293 Cytotoxicity Assay Measured in Cell-Based System Using Plate Reader - 7071-01_Inhibitor_Dose_CherryPick_Activity_Set2.; type: functional
[24] = Concentration-dependent survival of SW480 colon cancer line, luminescence detection with CellTiter-Glo, half-maximal inhibitory concentration (AID 1117338); type: functional
[25] = RKO cell viability reduction, dose response, CellTiter-Glo luminescence (AID 1117322); type: functional
[26] = cytotoxicity toward HCT116 cells – cell-based, CellTiter-Glo luminescence, IC50, dose response (AID 1117332); type: functional; conditions: HCT-116
[27] = SNU-C1 cell viability reduction, dose response, CellTiter-Glo luminescence (AID 1117323); type: functional, cell-based
[28] = cytotoxicity toward Colo320 cells – cell-based, CellTiter-Glo luminescence, IC50, dose response (AID 1117334); type: functional; conditions: COLO 320
[29] = cytotoxicity toward HT-29 cells – cell-based, CellTiter-Glo luminescence, IC50, dose response (AID 1117330); type: functional
[30] = CellTiter-Glo luminescent dose response of DLD-1 viability loss (AID 1117352); type: functional
[31] = HCT116 cell viability decrease, GSK3B pretreatment – CellTiter-Glo, IC50, dose response (AID 1117339); type: functional; conditions: HCT-116
[32] = target: T1, Oxysterols receptor LXR-beta (Homo sapiens, UniProt P55055); type: functional, cell-based;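 also: agonist activity at LXR measured by a cell-based luminescence readout across a dose range, run as a counterscreen for daf-12 agonists; HEK293 cells with Gal4-LXR fusion and GAL4-driven luciferase reporter; potency for activation of Gal4-LXR reporter so compounds are agonists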
T1 sequence (P55055 whole entry): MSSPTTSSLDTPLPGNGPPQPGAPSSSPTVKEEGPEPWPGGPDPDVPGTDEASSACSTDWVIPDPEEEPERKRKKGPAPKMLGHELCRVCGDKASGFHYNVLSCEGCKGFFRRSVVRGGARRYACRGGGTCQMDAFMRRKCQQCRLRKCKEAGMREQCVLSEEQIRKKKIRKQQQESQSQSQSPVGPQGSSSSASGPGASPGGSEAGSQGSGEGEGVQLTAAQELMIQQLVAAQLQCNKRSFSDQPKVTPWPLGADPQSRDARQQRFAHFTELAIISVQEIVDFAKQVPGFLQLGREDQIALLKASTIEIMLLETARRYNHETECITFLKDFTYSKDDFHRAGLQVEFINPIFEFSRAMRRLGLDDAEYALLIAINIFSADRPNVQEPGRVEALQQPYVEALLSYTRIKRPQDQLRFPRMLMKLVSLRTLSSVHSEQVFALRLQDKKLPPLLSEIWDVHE

[33] = HepG2 cell cytotoxicity, dose response, cytotoxicity control, ATP luminescence, dry powder, set 2 (AID 743129); type: functional, cell-based
[34] = HEK293T cell cytotoxicity, dose response, cytotoxicity control, plate reader, dry powder, set 10 (AID 743315); type: functional, cell-based; conditions: HEK293
[35] = target: Potassium channel subfamily K member 9 (Homo sapiens, UniProt Q9NPC2); experiment: TASK3 (KCNK9) channel inhibitors, thallium flux, SAR follow-up, selectivity assay for TASK1 inhibitor project, cell-based, FluxOR thallium flux, concentration-response (AID 652211); type: functional;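 also: potency is for inhibitors of the channel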
[36] = target: Potassium channel subfamily K member 3 (Homo sapiens, UniProt O14649); experiment: TASK1 (KCNK3) potassium channel inhibitors, SAR follow-up, CHO cells, FluxOR thallium flux (AID 652212); type: functional
[37] = target: NAD-dependent protein deacylase sirtuin-5, mitochondrial (Homo sapiens, UniProt Q9NXA8); experiment: SIRT5 desuccinylase inhibitors, dose response, biochemical, fluorescence imaging, cherry-pick, set 5 (AID 720591);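 also: desuccinylation of succinyl peptide AMC substrate read as fluorescence after trypsin release; potency of inhibitors that lower fluorescence and may act on trypsin instead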
[38] = microbe, parasite or virus in culture; type: functional; conditions: Mycobacterium tuberculosis
[39] = target: T2, Ubiquitin-conjugating enzyme E2 N (Homo sapiens, UniProt P61088); type: functional;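 also: Dose-response confirmation in a TR-FRET assay detecting UBC13-driven polyubiquitin chain formation, inhibition measured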
T2 sequence (P61088 whole entry): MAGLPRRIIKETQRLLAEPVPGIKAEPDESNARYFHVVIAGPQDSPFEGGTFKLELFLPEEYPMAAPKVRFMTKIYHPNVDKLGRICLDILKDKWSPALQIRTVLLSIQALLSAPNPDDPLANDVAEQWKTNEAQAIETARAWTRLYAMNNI

[40] = target: RNA-editing ligase 1, mitochondrial (Trypanosoma brucei brucei, UniProt P86926); experiment: TbREL1 ligase inhibitors, dose response, biochemical, fluorescence, Trypanosoma brucei (AID 1117295); type: functional
[41] = human group III sPLA2 inhibitors, dose response, biochemical, QFRET, IC50 (AID 743457);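 also: green fluorescence rise as the enzyme cleaves BODIPY PC-A2 in liposomes; potency for inhibition of the enzyme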
[42] = cytotoxicity in HeLa cells, dose response, cytotoxicity control, cell-based, plate reader, dry powder (AID 651946); type: functional
[43] = A2780 ovarian cancer cell cytotoxicity, dose response, cytotoxicity control, plate reader, dry powder samples (AID 743046); type: functional, cell-based
[44] = target: Metabotropic glutamate receptor 7 (Homo sapiens, UniProt Q14831); experiment: mGlu7 positive allosteric modulators, dose response, cell-based, calcium mobilization, Galpha15 (AID 743384); type: functional
[45] = target: fMet-Leu-Phe receptor (Homo sapiens, UniProt P21462); experiment: FPR ligands, dose response (AID 519); type: functional
[46] = inhibitors of firefly luciferase expression or activity, dose response, H4 neuroglioma cells, luminescence (AID 1990); type: functional, cell-based
[47] = Luminescence Cell-Based Dose Response HTS to Identify Inhibitors of 5'UTR Stem-Loop Driven Prion Protein mRNA Translation in H4 Neuroglioblastoma Cells. [Related pubchem assays: 1827 (Project Summary), 1813 (Primary HTS)]; type: functional
[48] = inhibitors of SNCA 5'UTR-driven reporter translation, confirmation, H4 neuroglioma cells, luminescence (AID 1988); type: functional, cell-based
[49] = cells; conditions: A549
[50] = target: Major prion protein (Homo sapiens, UniProt P04156); type: functional, cell-based
[51] = cells
[52] = Late stage assay provider results from the probe development effort to identify inhibitors of the Plasmodium falciparum M18 Aspartyl Aminopeptidase (M18AAP): radiolabel-based cell-based dose response assay to identify compounds that inhibit P. falciparum growth in RBCs, Set 2..; type: functional
[53] = cells; conditions: HEK293

CCCC#Cc1ccc([C@@H]2[C@@H](C#N)N(S(=O)(=O)c3cccc(F)c3)[C@H]2CO)cc1
AC50 [1]: 5.96 µM (active) | AC50 [2]: 28.2 µM (active) | AC50 [3]: 24.2 µM (active) | AC50 [4]: > 70 µM (inactive) | AC50 [5]: 43.1 µM (active) | AC50 [6]: 37 µM (active)

COc1ccccc1NC(=O)c1ccc(=O)oc1
IC50 [7]: 33.1 µM (inactive) | IC50 [8]: 30.2 µM (inactive)

O=C1C(NS(=O)(=O)c2ccccc2)=C(c2ccccc2)C(=O)c2ccccc21
AC50 [9]: > 70 µM (inactive) | AC50 [10]: 65.6 µM (active) | AC50 [11]: 56.7 µM (active) | AC50 [12]: 61.4 µM (active) | AC50 [13]: 41 µM (active)

CCCNC(=O)N1[C@H](C#N)[C@H](c2ccc(C3=CCCCC3)cc2)[C@H]1CO
AC50 [14]: 18.3 µM (active) | AC50 [15]: > 100 µM (inactive) | AC50 [16]: 0.424 µM (active) | AC50 [17]: 0.113 µM (active) | AC50 [18]: 0.374 µM (active) | AC50 [19]: 0.163 µM (active)

CNCCCCOc1ccccc1Cc1ccccc1 [BIFEMELANE]
IC50 [20]: > 33.3 µM (inactive)

C[C@H]1CN([C@@H](C)CO)S(=O)(=O)c2ccc(C#Cc3cccc(F)c3)cc2O[C@@H]1CN(C)C(=O)NC1CCCCC1
AC50 [21]: 34.4 µM (active) | AC50 [22]: 8.15 µM (active) | AC50 [23]: 8.15 µM (active)

CC=CC1C(C(=O)OCc2c(F)c(F)c(COC)c(F)c2F)C1(C)C (stereo not given)
IC50 [24]: > 20 µM (inactive) | IC50 [25]: > 20 µM (inactive) | IC50 [26]: > 20 µM (inactive) | IC50 [27]: > 20 µM (inactive) | IC50 [28]: > 20 µM (inactive) | IC50 [29]: > 20 µM (inactive) | IC50 [30]: > 20 µM (inactive) | IC50 [31]: > 20 µM (inactive)

COC1=C/C(=C/c2c(O)c(C#N)c3ccccn23)C=CC1=O
EC50 [32]: > 67.5 µM (inactive)

Cc1ccc(OCCn2c(SCCO)nc3ccccc32)c(C(C)C)c1
AC50 [33]: 50.8 µM (active) | AC50 [34]: 31.2 µM (active)

Cc1cccc(C(=O)Nc2cccc(NC(=O)c3cccs3)c2)c1
IC50 [35]: 0.23 µM (active) | IC50 [36]: 0.007 µM (active)

CC(C)(C)OC(=O)N(CCc1ccccc1)Cc1ccccc1OCc1cccc(NC(=O)C2CCCC2)c1
AC50 [37]: > 30 µM (inactive)

COc1ccc(C[C@H]2CN3C(=NC[C@H]3Cc3ccccc3)N2CCNC(=O)CCC2CCCCC2)cc1
CC50 [38]: 23.8 µM (active) | IC50 [39]: > 20 µM (inactive) | IC50 [40]: > 96.6 µM (inactive)

Cc1ccccc1N=C(S)c1nc2ccccc2[nH]1
IC50 [41]: > 122 µM (inactive)

c1ccc(-c2nnc(SCc3ncco3)o2)cc1
AC50 [42]: > 52 µM (inactive)

COc1ccc2c3c(n(C)c2c1)[C@H](CO)N(C(=O)Nc1ccc(F)cc1)CC31CCN(S(=O)(=O)c2cccc(C)c2)CC1
AC50 [1]: 7.72 µM (active) | AC50 [43]: 38.8 µM (active) | AC50 [5]: 58 µM (active)

CC(=O)Nc1ccc(OCC(=O)c2cc(C)n(-c3ccc(OC(F)F)cc3)c2C)cc1
EC50 [44]: 2.4 µM (active)

Cc1ccc(C(=O)C2=C(O)C(=O)N(Cc3ccccc3)C2c2cccnc2)o1 (stereo not given)
Ki [45]: > 66.7 µM (inactive)

CCC(=O)NCCCNc1nc2c(C)cccc2cc1C#N
EC50 [46]: 25.9 µM (active) | EC50 [47]: > 120 µM (not active) | EC50 [48]: > 120 µM (not active) | AC50 [49]: > 52 µM (inactive)

CN(C)S(=O)(=O)c1ccc(N2CCCC2)c(C(=O)Nc2nccs2)c1
IC50 [50]: 14.8 µM (inactive) | IC50 [51]: > 138 µM (inactive)

COc1ccc(CCNc2c3c(nc4ccccc24)CCCC3)cc1OC
IC50 [52]: 16.5 µM (inactive)

Cc1cccn2c(=O)c3cc(C(=O)NCc4ccc(F)cc4)c(=N)n(CCCN4CCOCC4)c3nc12
AC50 [53]: > 52 µM (inactive)
